“Also recorded” adds a separate entry of the source.

The test system of assay [1] is susceptible strain of E. coli. Put plainly: Response of pre-rRNA to cefazolin in log phase culture. The conditions noted are these: log phase of growth, within 30 min after addition. The format is cell-based.
The test system of assay [2] is E. coli clinical urine isolate EC103. Put plainly: Electrochemical sensor assay of pre-rRNA and mature rRNA in E. coli EC103 cultures spiked with antibiotics. The format is cell-based. The following applies: EC103 culture in MH broth, antibiotic added at 150 or 210 min; 25 μg/ml Rifampicin, 25 μg/ml Chloramphenicol, 4 μg/ml Ciprofloxacin, 16 μg/ml Gentamicin; vs culture without antibiotic. The protocol:
Bacterial Strains and Media. E. coli clinical urine isolate EC103 (Amp^R) was obtained from the University of California-Los Angeles (UCLA) Clinical Microbiology Laboratory with approval from the UCLA and Veterans' Affair Institutional Review Boards and appropriate Health Insurance Portability and Accountability Act exemptions. EC103 was inoculated into Mueller Hinton (MH) broth with 12% glycerol (Becton Dickinson, Sparks, Md.) and stored at -80° C. EC103 was cultured overnight in MH broth with 64 μ[…] (Sigma, St. Louis, Mo.). EC103 was plated on Luria Broth (LB) agar (MOBIO Laboratories Inc., Carlsbad, Calif.) for counting colony-forming units (CFUs). EC103 Growth and Target Copy Number Experiments. Overnight cultures of EC103 were prepared by adding 5 μl of EC103 glycerol stock to 5 ml of MH broth with ampicillin and incubated at 37° C. overnight with shaking. The following day, the EC103 culture was diluted by adding 10 μl of the overnight culture to 100 ml of prewarmed and […] MH broth in a 500 ml flask, followed by incubation at 37° C. with shaking at 250 rpm. Every 30 min, including at 0 min and the overnight culture itself, a 1 ml sample was taken for OD600 measurement and 10-fold serial dilutions (100 μl into 900 μl) were performed in room temperature MH broth. Cell density was determined by plating serial dilutions in triplicate. At each time point, culture samples were transferred to an ice water bath or centrifuged immediately at 4° C. for 3 min at 14,000 rpm. The supernatants were then removed by aspiration, flash frozen in a dry ice-ethanol bath and stored at -80° C. […] Electrochemical detection. […] For thiolated capture probes, disposable 16-sensor bare Au electrode arrays were obtained from GeneFluidics ([…], Calif.). Each sensor of the array consisted of a 2.5 mm diameter central working electrode, surrounded by an Au counter electrode and an Au pseudo-reference electrode. The sensor chip was driven by a computer-controlled Helios multichannel electrochemical workstation (GeneFluidics, […], Calif.). Washing steps were carried out after each application of reagents by applying a stream of deionized H2O to the sensor surface for approximately 2-3 sec followed by 5 sec of drying under a stream of nitrogen. Prior to addition of the first reagent, the bare gold chips were dried as described above. To functionalize the working sensor surface, a fresh mixture of 0.05 μM thiolated capture probe and 300 μM 1,6-hexanedithiol (96%, Sigma, St. Louis, Mo.) was prepared in 10 mM Tris-HCl, 1 mM EDTA and 0.3 M NaCl (pH 8.0) and allowed to stand at room temperature for 10 min. […] This was then combined with the CFU/ml values determined by plating for each time point to generate target molecule number per CFU measurements.

For `Cc1nnc(SCC2=C(C(=O)O)N3C(=O)[C@@H](NC(=O)Cn4cnnn4)[C@H]3SC2)s1` [cefazolin], the “drop in the amount of pre-rRNA compared to a culture without the antibiotic” value in assay [1] is “one-log drop”.

In the case of `O=C(N[C@H](CO)[C@H](O)c1ccc([N+](=O)[O-])cc1)C(Cl)Cl` [chloramphenicol, Chloramphenicol], in assay [2], the “effect on mature rRNA level” value is recorded as “decrease of mature rRNA; also recorded: selective decrease in mature rRNA” and the “effect on pre-rRNA level” value is “selective increase in pre-rRNA”.

As to Gentamicin, in assay [2], the “effect on mature rRNA level” value is “decrease in the pool of mature rRNA; also recorded: selective decrease in mature rRNA” and the “effect on pre-rRNA level” value is “without affecting the level of pre-rRNA”.

Values taken from US10370728B2, “Antibiotic susceptibility testing using probes for preribosomal RNA” (THE REGENTS OF THE UNIVERSITY OF CALIFORNIA, priority 2012, dated 2019).
